Read-outs that look alike come from different tables or passages of the source.
How the values were obtained:
[1] = octanol/water; cited from earlier work
[2] = Miscibility with water and lipophilic cosmetic solvents (Neutralöl, Paraffinöl); format: physicochemical; details: for Löslichkeit + Neutralöl auf: 2,5 g: 0,1 g PKR made up with Neutralöl to 2,5 g; for Löslichkeit + Neutralöl auf: 5 g: 0,1 g PKR made up with Neutralöl to 5 g; for Löslichkeit + Neutralöl auf: 10 g: 0,1 g PKR made up with Neutralöl to 10 g; for Löslichkeit + Paraffinöl auf: 5 g: 0,1 g PKR made up with Paraffinöl to 5 g; for Löslichkeit + Paraffinöl auf: 10 g: 0,1 g PKR made up with Paraffinöl to 10 g; for Löslichkeit + Wasser auf: 10 g: 0,1 g PKR made up with water to 10 g; for Löslichkeit + Wasser auf: 20 g: 0,1 g PKR made up with water to 20 g; on Löslichkeit + Neutralöl auf: 10 g: key: +: klare Lösung; -: Zweiphasengemisch; on Löslichkeit + Neutralöl auf: 2,5 g: key: +: klare Lösung; -: Zweiphasengemisch; on Löslichkeit + Neutralöl auf: 5 g: key: +: klare Lösung; -: Zweiphasengemisch
From the text: Mischungen aus 40 Gew.-% Kühlreagenz (a) und jeweils 60 bzw. 50 Gew.-% Alkohol (b) wurden gemäß Beispiel 1 erzeugt bzw. mit 10 Gew.-% Wasser versetzt.
Anschließend wurde alternativ mit Wasser, Neutralöl oder Paraffinöl versetzt.

[3] = cited from earlier work

## CC(O)CO (stereo not shown) [1,2-Propandiol]
[1]
  log Kow: -0,90

## CNC(=O)C(C)(C(C)C)C(C)C [WS-23, 2-Isopropyl-N,2,3-trimethylbutanamid]
[2]; Lagertemperatur 8 °C
  Löslichkeit + Neutralöl auf: 2,5 g: +
  Löslichkeit + Neutralöl auf: 5 g: +
  Löslichkeit + Neutralöl auf: 10 g: +
  Löslichkeit + Paraffinöl auf: 5 g: -
  Löslichkeit + Paraffinöl auf: 10 g: -
  Löslichkeit + Wasser auf: 10 g: -
  Löslichkeit + Wasser auf: 20 g: -
[2]; Lagertemperatur 20 °C
  Löslichkeit + Neutralöl auf: 2,5 g: +
  Löslichkeit + Neutralöl auf: 5 g: +
  Löslichkeit + Neutralöl auf: 10 g: +
  Löslichkeit + Paraffinöl auf: 5 g: -
  Löslichkeit + Paraffinöl auf: 10 g: -
  Löslichkeit + Wasser auf: 10 g: -
  Löslichkeit + Wasser auf: 20 g: +
[3]; bei 20 °C
  Löslichkeit in Wasser: ca. 0,5 g/L

## CC(C)[C@@H]1CC[C@@H](C)C[C@H]1O [L-Menthol]
[2]; Lagertemperatur 8 °C
  Löslichkeit + Neutralöl auf: 2,5 g: +
  Löslichkeit + Neutralöl auf: 5 g: +
  Löslichkeit + Neutralöl auf: 10 g: +
  Löslichkeit + Paraffinöl auf: 5 g: +
  Löslichkeit + Paraffinöl auf: 10 g: +
  Löslichkeit + Wasser auf: 10 g: -
  Löslichkeit + Wasser auf: 20 g: -
[2]; Lagertemperatur 20 °C
  Löslichkeit + Neutralöl auf: 2,5 g: +
  Löslichkeit + Neutralöl auf: 5 g: +
  Löslichkeit + Neutralöl auf: 10 g: +
  Löslichkeit + Paraffinöl auf: 5 g: +
  Löslichkeit + Paraffinöl auf: 10 g: +
  Löslichkeit + Wasser auf: 10 g: -
  Löslichkeit + Wasser auf: 20 g: -
[3]; water
  Löslichkeit in Wasser: 0,355 g/L

Reference: patent EP3062762B1, “STABLE SOLUTIONS CONTAINING A PHYSIOLOGICAL COOLING REAGENT AND USE THEREOF” (priority 2013, dated 2015)
